Read-outs that look alike come from different tables or passages of the source.
Target: T1, Androgen Receptor (Homo sapiens, UniProt P10275)
T1 construct: endogenous in cells; host or cells: VCaP cells
T1 sequence (P10275 1-920): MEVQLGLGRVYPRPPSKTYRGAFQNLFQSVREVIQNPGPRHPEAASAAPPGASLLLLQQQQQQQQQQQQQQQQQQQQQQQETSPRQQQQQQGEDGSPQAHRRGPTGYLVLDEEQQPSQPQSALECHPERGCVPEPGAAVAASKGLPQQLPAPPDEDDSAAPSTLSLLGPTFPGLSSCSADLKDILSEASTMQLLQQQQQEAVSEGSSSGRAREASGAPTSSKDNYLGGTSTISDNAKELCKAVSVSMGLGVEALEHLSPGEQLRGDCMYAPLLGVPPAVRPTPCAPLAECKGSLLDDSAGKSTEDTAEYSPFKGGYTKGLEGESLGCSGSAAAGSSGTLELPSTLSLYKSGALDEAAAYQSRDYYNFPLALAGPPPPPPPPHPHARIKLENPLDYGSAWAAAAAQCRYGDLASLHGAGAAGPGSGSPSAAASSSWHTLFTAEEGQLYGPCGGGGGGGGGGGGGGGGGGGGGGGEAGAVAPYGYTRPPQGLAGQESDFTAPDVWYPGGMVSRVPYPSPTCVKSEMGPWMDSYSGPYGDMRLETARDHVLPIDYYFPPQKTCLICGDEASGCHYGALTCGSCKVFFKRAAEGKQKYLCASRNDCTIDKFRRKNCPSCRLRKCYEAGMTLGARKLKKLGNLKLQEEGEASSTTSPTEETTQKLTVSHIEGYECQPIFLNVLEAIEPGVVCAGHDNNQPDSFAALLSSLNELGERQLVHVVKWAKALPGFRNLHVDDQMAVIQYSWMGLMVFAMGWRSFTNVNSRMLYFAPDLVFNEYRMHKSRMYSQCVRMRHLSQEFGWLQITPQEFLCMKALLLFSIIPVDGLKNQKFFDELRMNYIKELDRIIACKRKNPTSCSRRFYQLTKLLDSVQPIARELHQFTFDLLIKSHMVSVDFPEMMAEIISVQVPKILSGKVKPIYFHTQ
Assay: Androgen Receptor ELISA assay (PathScan AR ELISA) in VCaP cells: AR degradation, Dmax and DC50
Format: cell-based
Outline: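 After 24 h exposure of VCaP cells (charcoal-stripped serum, 0.1 nM R1881 agonist, 0.1% DMSO) to seven half-log compound concentrations, residual AR in lysates was measured by PathScan ELISA (TMB absorbance, 450 nm). Cells were plated at 30,000/well and grown at least 3 days beforehand.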

[1] = read-out: VCaP DC50; VCaP cells; Table 34
[2] = VCaP cells; Table 34; read-out: VCaP DC50
[3] = VCaP, VCaP cells; Table 34; read-out: VCaP Dmax (%)

Row | DC50 [2] [nM] | Dmax [3] [%] | Compound | Dmax (VCaP, read-out: VCaP Dmax (%)) [%] | DC50 [1] [nM]
1 |  |  | Cc1ncsc1-c1ccc(CNC(=O)[C@@H]2C[C@@H](O)CN2C(=O)[C@@H](NC(=O)CCCOCCCOCCOc2ccc(N3C(=S)N(c4ccc(C#N)c(C(F)(F)F)c4)C(=O)C3(C)C)cc2)C(C)(C)C)cc1 [Example 315] | 26 to 50 | 51 to 500
2 |  |  | Cc1ncsc1-c1ccc(CNC(=O)[C@@H]2C[C@@H](O)CN2C(=O)[C@@H](NC(=O)CNCCCCOCCCOc2ccc(N3C(=S)N(c4ccc(C#N)c(C(F)(F)F)c4)C(=O)C3(C)C)cc2)C(C)(C)C)cc1 [Example 316] | 26 to 50 | 51 to 500
3 |  |  | Cc1ncsc1-c1ccc(CNC(=O)[C@@H]2C[C@@H](O)CN2C(=O)[C@@H](NC(=O)CN(C)CCCCOCCCOc2ccc(N3C(=S)N(c4ccc(C#N)c(C(F)(F)F)c4)C(=O)C3(C)C)cc2)C(C)(C)C)cc1 [Example 317] | 26 to 50 | 51 to 500
4 |  |  | Cc1ncsc1-c1ccc(CNC(=O)[C@@H]2C[C@@H](O)CN2C(=O)[C@@H](NC(=O)COCCC2CCN(CCOc3ccc(N4C(=S)N(c5ccc(C#N)c(C(F)(F)F)c5)C(=O)C4(C)C)cc3)CC2)C(C)(C)C)cc1 [Example 318] | 26 to 50 | 51 to 500
5 |  |  | Cc1ncsc1-c1ccc(CNC(=O)[C@@H]2C[C@@H](O)CN2C(=O)[C@@H](NC(=O)COCC#CCOCCOc2ccc(N3C(=S)N(c4ccc(C#N)c(C(F)(F)F)c4)C(=O)C3(C)C)cc2)C(C)(C)C)cc1 [Example 319] | 26 to 50 | < 50
6 |  |  | Cc1ncsc1-c1ccc(CNC(=O)[C@@H]2C[C@@H](O)CN2C(=O)[C@@H](NC(=O)COCCCCOCCCCOc2cccc(N3C(=S)N(c4ccc(C#N)c(C(F)(F)F)c4)C(=O)C3(C)C)c2)C(C)(C)C)cc1 [Example 320] | 26 to 50 | < 50
7 |  |  | Cc1ncsc1-c1ccc(CNC(=O)[C@@H]2C[C@@H](O)CN2C(=O)[C@@H](NC(=O)COCCCOCCCCOc2cccc(N3C(=S)N(c4ccc(C#N)c(C(F)(F)F)c4)C(=O)C3(C)C)c2)C(C)(C)C)cc1 [Example 321] | 26 to 50 | < 50
8 | < 50 | 51 to 70 | COc1cc(N2C(=O)C(C)(C)N(c3ccc(OCCOc4ccc(OCC(=O)N[C@H](C(=O)N5C[C@H](O)C[C@H]5C(=O)NCc5ccc(-c6scnc6C)cc5)C(C)(C)C)cc4)c(F)c3)C2=S)ccc1C#N [Example 323] |  | 
9 |  |  | Cc1ncsc1-c1ccc(CNC(=O)[C@@H]2C[C@@H](O)CN2C(=O)[C@@H](NC(=O)CCN2CCC(OCCOc3ccc(N4C(=S)N(c5ccc(C#N)c(C(F)(F)F)c5)C(=O)C4(C)C)cc3)CC2)C(C)(C)C)cc1 [Example 324] | 26 to 50 | 51 to 500
10 |  |  | Cc1ncsc1-c1ccc(CNC(=O)[C@@H]2C[C@@H](O)CN2C(=O)[C@@H](NC(=O)COC/C=C\COCCCCOc2ccc(N3C(=S)N(c4ccc(C#N)c(C(F)(F)F)c4)C(=O)C3(C)C)cc2)C(C)(C)C)cc1 [Example 325] | 26 to 50 | < 50
11 |  |  | Cc1ncsc1-c1ccc(CNC(=O)[C@@H]2C[C@@H](O)CN2C(=O)[C@H](C(C)C)N2CC(OCCCOCCCOc3ccc(N4C(=S)N(c5ccc(C#N)c(C(F)(F)F)c5)C(=O)C4(C)C)cc3)=CC2=O)cc1 [Example 329] | 26 to 50 | < 50
12 |  |  | Cc1ncsc1-c1ccc(CNC(=O)[C@@H]2C[C@@H](O)CN2C(=O)[C@@H](NC(=O)COCCCOCCCCNc2ccc(N3C(=S)N(c4ccc(C#N)c(C(F)(F)F)c4)C(=O)C3(C)C)cc2)C(C)(C)C)cc1 [Example 333] | 51 to 70 | < 50
13 | < 50 | > 71 | CC(C)(C)[C@H](NC(=O)COCCCOCCCCOc1ccc(N2C(=S)N(c3ccc(C#N)c(Br)c3)C(=O)C2(C)C)cc1F)C(=O)N1C[C@H](O)C[C@H]1C(=O)NCc1ccc(-c2cnco2)cc1 [Example 334] |  | 
14 |  |  | CC(C)(C)[C@H](NC(=O)COCCCOCCCCOc1ccc(N2C(=S)N(c3ccc(C#N)c(Cl)c3)C(=O)C2(C)C)c(F)c1)C(=O)N1C[C@H](O)C[C@H]1C(=O)NCc1ccc(-c2cnco2)cc1 [Example 336] | > 71 | < 50
15 |  |  | CC(C)(C)[C@H](NC(=O)COCCCOCCCCOc1ccc(N2C(=S)N(c3ccc(C#N)c(Cl)c3)C(=O)C2(C)C)cc1)C(=O)N1C[C@H](O)C[C@H]1C(=O)NCc1ccc(-c2cnco2)cc1 [Example 337] | > 71 | < 50
16 | < 50 | 51 to 70 | Cc1ncoc1-c1ccc(CNC(=O)[C@@H]2C[C@@H](O)CN2C(=O)[C@@H](NC(=O)COCCCOCCCCOc2ccc(N3C(=S)N(c4cnc(C#N)c(Cl)c4)C(=O)C3(C)C)cc2)C(C)(C)C)cc1 [Example 338] |  | 

Row | DC50 [2] [nM] | Dmax [3] [%] | Compound | Dmax (VCaP, read-out: VCaP Dmax (%)) [%] | DC50 [1] [nM]
17 | < 50 | > 71 | CC(C)(C)[C@H](NC(=O)COCCCCCOCCn1cc(C(=O)N[C@H]2C(C)(C)[C@H](Oc3ccc(C#N)c(Cl)c3)C2(C)C)cn1)C(=O)N1C[C@H](O)C[C@H]1C(=O)NCc1ccc(-c2cncs2)cc1 [Example 339] |  | 
18 |  |  | CC(C)(C)[C@H](NC(=O)COCCCOCCCCCOc1ccc(N2C(=S)N(c3ccc(C#N)c(Cl)c3)C(=O)C2(C)C)cc1)C(=O)N1C[C@H](O)C[C@H]1C(=O)NCc1ccc(-c2cnco2)cc1 [Example 345] | 51 to 70 | < 50
19 |  |  | CC(C)(C)[C@H](NC(=O)COCCCCOCCCCOc1ccc(N2C(=S)N(c3ccc(C#N)c(Cl)c3)C(=O)C2(C)C)cc1)C(=O)N1C[C@H](O)C[C@H]1C(=O)NCc1ccc(-c2cnco2)cc1 [Example 346] | 51 to 70 | < 50
20 | < 50 | 51 to 70 | CC(C)(C)[C@H](NC(=O)COCCCCOCCn1cc(C(=O)N[C@H]2C(C)(C)[C@H](Oc3ccc(C#N)c(Cl)c3)C2(C)C)cn1)C(=O)N1C[C@H](O)C[C@H]1C(=O)NCc1ccc(-c2cncs2)cc1 [Example 347] |  | 
21 | < 50 | > 71 | Cc1ncsc1-c1ccc([C@H](C)NC(=O)[C@@H]2C[C@@H](O)CN2C(=O)[C@@H](NC(=O)COCCCOCCCCOc2ccc(N3C(=S)N(c4cnc(C#N)c(C(F)(F)F)c4)C(=O)C3(C)C)cc2)C(C)(C)C)cc1 [Example 365] |  | 
22 |  |  | Cc1ncsc1-c1ccc(CNC(=O)[C@@H]2C[C@@H](O)CN2C(=O)[C@H](C)NC(=O)COCCCOCCCCOc2ccc(N3C(=S)N(c4ccc(C#N)c(C(F)(F)F)c4)C(=O)C3(C)C)cc2)cc1 [Example 366] |  | < 50
23 |  |  | CC(C)(C)[C@H](NC(=O)COCCCOCCCCOc1ccc(N2C(=S)N(c3ccc(C#N)c(C(F)(F)F)c3)C(=O)C2(C)C)cc1)C(=O)N1C[C@H](O)C[C@H]1C(=O)NCc1ccc(-c2cnco2)c(F)c1 [Example 367] | 51 to 70 | < 50
24 |  |  | CC(C)(C)[C@H](NC(=O)COCCCOCCCCOc1ccc(N2C(=S)N(c3cc(Cl)c(C#N)cc3F)C(=O)C2(C)C)cc1F)C(=O)N1C[C@H](O)C[C@H]1C(=O)NCc1ccc(-c2cnco2)cc1 [Example 368] |  | < 50
25 |  |  | CC(C)(C)[C@H](NC(=O)COCCCOCCCCOc1ccc(N2C(=S)N(c3cc(Cl)c(C#N)cc3F)C(=O)C2(C)C)cc1)C(=O)N1C[C@H](O)C[C@H]1C(=O)NCc1ccc(-c2cnco2)cc1 [Example 369] |  | < 50
26 |  |  | CC(C)(C)[C@H](NC(=O)COCCCOCCCCOc1ccc(N2C(=S)N(c3ccc(C#N)c(C(F)(F)F)c3)C(=O)C2(C)C)cc1)C(=O)N1C[C@H](O)C[C@H]1C(=O)NCc1ccc(-c2ocnc2F)cc1 [Example 370] | 26 to 50 | < 50
27 | < 50 | > 71 | CC(C)(C)[C@H](NC(=O)COc1ccc(OCCOc2ccc(N3C(=S)N(c4cnc(C#N)c(C(F)(F)F)c4)C(=O)C3(C)C)cc2)cc1)C(=O)N1C[C@H](O)C[C@H]1C(=O)NCc1ccc(-c2cnco2)cc1 [Example 371] |  | 
28 |  |  | Cc1ncsc1-c1ccc([C@H](C)NC(=O)[C@@H]2C[C@@H](O)CN2C(=O)[C@@H](NC(=O)COCCCCOCCCCOc2ccc(N3C(=S)N(c4ccc(C#N)c(C(F)(F)F)c4)C(=O)C3(C)C)cc2)C(C)(C)C)cc1 [Example 373] | 51 to 70 | < 50
29 |  |  | Cc1ncsc1-c1ccc(CNC(=O)[C@@H]2C[C@@H](O)CN2C(=O)[C@@H](NC(=O)C(C)Oc2ccc(OCCOc3ccc(N4C(=S)N(c5ccc(C#N)c(C(F)(F)F)c5)C(=O)C4(C)C)cc3)cc2)C(C)(C)C)cc1 (some centres unmarked) [Example 374] | 26 to 50 | < 50
30 |  |  | CC(C)(C)[C@H](NC(=O)COCCCOCCCCOc1ccc(N2C(=S)N(c3ccc(C#N)c(C(F)(F)F)c3)C(=O)C2(C)C)cc1)C(=O)N1C[C@H](O)C[C@H]1C(=O)NCc1ccc(-c2cn[nH]c2)cc1 [Example 376] | 51 to 70 | < 50
31 |  |  | Cc1n[nH]cc1-c1ccc(CNC(=O)[C@@H]2C[C@@H](O)CN2C(=O)[C@@H](NC(=O)COCCCOCCCCOc2ccc(N3C(=S)N(c4ccc(C#N)c(C(F)(F)F)c4)C(=O)C3(C)C)cc2)C(C)(C)C)cc1 [Example 377] | 51 to 70 | 51 to 500

Reference: patent publication US11427548B2 (Arvinas Operations, Inc., priority 2015, dated 2022)
